Read-outs that look alike come from different tables or passages of the source.
Tests used:
Type in all cases: cell-based
[1] = system: human umbilical vein endothelial HUVEC; experiment: MTT antiproliferative assay, HUVEC; details: 48 h, 0–50 μM, read-out: Antiproliferative activity IC50 ± SEM, HUVEC
Protocol: (§1) The in vitro antiproliferative activity of 33 TMPH compounds was evaluated by MTT assay ([Medica et al., 2022]). Five types of TNBC-related cell lines (human breast cancer MCF-7 and MDA-MB-231, mouse breast cancer 4T1, mouse fibroblast L929, and human umbilical vein endothelial HUVEC cell lines) were used. The cell lines were obtained from the Shanghai Institute of Biochemistry and Cell Biology of the Chinese Academy of Sciences (Shanghai, China). The cell lines were cultured in DMEM supplemented with 1% penicillin–streptomycin solution (100×) and 10% FBS at 37°C under a humid atmosphere containing 5% CO2. After cell passage, cryopreservation, and resuscitation, the growth-inhibitory effects against the five cell lines were determined by MTT assay. The 33 TMPH compounds and the reference control drug cisplatin were dissolved in 0.1% DMSO solution. The cell lines were maintained in 96-well plates and subjected to each test compound (0–50 μM) at 37°C for 48 h. After treatment with 1 mg/ml MTT solution for 4 h, the formazan crystals were dissolved in each well. A microplate reader (Varioskan Flash 3001, Thermo Scientific) was used to determine the cell viability at 490 nm, and each experiment was repeated four times. The collected data were expressed as the mean ± SEM. The inhibitory concentration of the 34 compounds at 50% (IC50) was calculated via concentration–inhibition relationship regression by SPSS software.

mouse breast cancer 4T1 = experiment: MTT antiproliferative assay, 4T1; details: 48 h, 0–50 μM, read-out: Antiproliferative activity IC50 ± SEM, 4T1
Protocol: as §1

[2] = system: human breast cancer MCF-7; experiment: MTT antiproliferative assay, MCF-7; details: 0–50 μM, read-out: Antiproliferative activity IC50 ± SEM, MCF-7
Protocol: as §1

mouse fibroblast L929 = experiment: MTT antiproliferative assay, L929; details: 0–50 μM, read-out: Antiproliferative activity IC50 ± SEM, L929
Protocol: as §1

[3] = system: human breast cancer MDA-MB-231; experiment: MTT antiproliferative assay, MDA-MB-231; details: for IC50: MTT, 48 h, 0–50 μM, read-out: Antiproliferative activity IC50 ± SEM, MDA-MB-231; for SI, selectivity index: SI = IC50 (L929)/IC50 (MDA-MB-231)
Protocol: as §1

[4] = system: MCF-7, MDA-MB-231, 4T1, L929 and HUVEC cell lines; experiment: MTT antiproliferative assay, statements over all five tested cell lines; details: range over all five tested cell lines, read-out: IC50 values ranging over the tested cell lines
Protocol: as §1

SMILES	IC50 ([1]; Homo sapiens, HUVEC)	IC50 (mouse breast cancer 4T1; Mus musculus)	IC50 ([2]; Homo sapiens, MCF7, 48 h)	IC50 (mouse fibroblast L929; Mus musculus, L929, 48 h)	IC50 ([3]; Homo sapiens, MDA-MB-231)	SI, selectivity index [3]	IC50 [4]	IC50 [1]	IC50 (mouse breast cancer 4T1)	IC50 ([2]; 48 h)	IC50 (mouse fibroblast L929; 48 h)	IC50 [3]
Cc1nc(C)c(C(=O)NCCCCCCCCNC(=O)C=Cc2ccccc2)nc1C [8–1]	> 20 µM	> 20 µM	10.99 ± 0.06 µM	16.58 ± 0.12 µM	2.52 ± 0.08 µM	6.58	–	–	–	–	–	–
Cc1nc(C)c(C(=O)NCCCCCCCCNC(=O)c2cc3ccccc3o2)nc1C [8–2]	4.27 ± 0.07 µM	19.86 ± 0.16 µM	6.62 ± 0.15 µM	> 20 µM	6.1 ± 0.16 µM	>3.28	–	–	–	–	–	–
Cc1nc(C)c(C(=O)NCCCCCCCCNC(=O)c2cc3ccccc3s2)nc1C [8–3]	9.78 ± 0.05 µM	19.5 ± 0.45 µM	4.15 ± 0.02 µM	4.12 ± 0.32 µM	3.39 ± 0.12 µM	1.22	1.61 to 19.5 µM	–	–	–	–	–
Cc1nc(C)c(C(=O)NCCCCCCCCNC(=O)c2cc3ccccc3[nH]2)nc1C [8–4]	> 20 µM	> 20 µM	6.21 ± 0.14 µM	10.7 ± 0.43 µM	5.77 ± 0.09 µM	1.85	–	–	–	–	–	–
Cc1nc(C)c(C(=O)NCCCCCCCCNC(=O)c2cnc3ccccc3c2)nc1C [8–5]	> 20 µM	2.07 ± 0.04 µM	4.96 ± 0.25 µM	3.49 ± 0.28 µM	3.44 ± 0.16 µM	1.01	–	–	–	–	–	–
Cc1nc(C)c(C(=O)NCCCCCCCCNC(=O)c2ccc3ncccc3c2)nc1C [8–6]	> 20 µM	1.94 ± 0.03 µM	> 20 µM	> 20 µM	1.02 ± 0.15 µM	>19.61	–	–	–	–	–	–
Cc1nc(C)c(C(=O)NCCCCCCCCNC(=O)c2ccc3cc[nH]c3c2)nc1C [8–9]	> 20 µM	3.74 ± 0.19 µM	> 20 µM	> 20 µM	8.45 ± 0.14 µM	>2.37	–	–	–	–	–	–
Cc1nc(C)c(C(=O)NCCCCCCCCNC(=O)C=Cc2ccc(Cl)cc2)nc1C [8–10]	4.54 ± 0.01 µM	2.48 ± 0.24 µM	2.84 ± 0.21 µM	5.48 ± 0.06 µM	6.67 ± 0.16 µM	0.82	1.61 to 19.5 µM	–	–	–	–	–
COc1ccc(C=CC(=O)NCCCCCCCCNC(=O)c2nc(C)c(C)nc2C)cc1OC [8–11]	10.35 ± 0.03 µM	12 ± 0.46 µM	> 20 µM	> 20 µM	5.05 ± 0.02 µM	>3.96	–	–	–	–	–	–
COc1cc(C=CC(=O)NCCCCCCCCNC(=O)c2nc(C)c(C)nc2C)cc(OC)c1OC [8–12]	> 20 µM	10.2 ± 0.32 µM	5.38 ± 0.13 µM	> 20 µM	11.2 ± 0.12 µM	>1.78	–	–	–	–	–	–
Cc1nc(C)c(C(=O)NCCCCCCCCNC(=O)c2ccc3ccccc3c2)nc1C [8–13]	14.4 ± 0.03 µM	13.7 ± 0.24 µM	> 20 µM	15.7 ± 0.36 µM	2.44 ± 0.09 µM	6.42	–	–	–	–	–	–
Cc1nc(C)c(C(=O)NCCCCCCCCCCNC(=O)C=Cc2ccccc2)nc1C [10–1]	> 20 µM	2.86 ± 0.18 µM	2.61 ± 0.19 µM	4.36 ± 0.37 µM	1.14 ± 0.08 µM	3.82	–	–	–	–	–	–
Cc1nc(C)c(C(=O)NCCCCCCCCCCNC(=O)c2cc3ccccc3o2)nc1C [10–2]	16.6 ± 0.68 µM	> 20 µM	4.19 ± 0.15 µM	11.7 ± 0.81 µM	8.41 ± 0.18 µM	1.39	–	–	–	–	–	–
Cc1nc(C)c(C(=O)NCCCCCCCCCCNC(=O)c2cc3ccccc3s2)nc1C [10–3]	> 20 µM	17.6 ± 1.16 µM	18.5 ± 1.34 µM	7.26 ± 0.16 µM	4.16 ± 0.25 µM	1.75	–	–	–	–	–	–
Cc1nc(C)c(C(=O)NCCCCCCCCCCNC(=O)c2cc3ccccc3[nH]2)nc1C [10–4]	> 20 µM	> 20 µM	> 20 µM	> 20 µM	13 ± 0.27 µM	>1.54	–	–	–	–	–	–
Cc1nc(C)c(C(=O)NCCCCCCCCCCNC(=O)c2cnc3ccccc3c2)nc1C [10–5]	> 20 µM	> 20 µM	8.72 ± 0.49 µM	5.18 ± 0.27 µM	5.76 ± 0.13 µM	0.90	–	–	–	–	–	–
Cc1nc(C)c(C(=O)NCCCCCCCCCCNC(=O)c2ccc3ncccc3c2)nc1C [10–6]	10.2 ± 0.86 µM	12 ± 0.54 µM	6.49 ± 0.36 µM	8.91 ± 0.12 µM	7.76 ± 0.14 µM	1.15	1.61 to 19.5 µM	–	–	–	–	–
Cc1nc(C)c(C(=O)NCCCCCCCCCCNC(=O)C=Cc2ccc(Cl)cc2)nc1C [10–10]	11.2 ± 0.38 µM	> 20 µM	2.93 ± 0.05 µM	10.1 ± 0.52 µM	2.83 ± 0.09 µM	3.58	–	–	–	–	–	–
COc1ccc(C=CC(=O)NCCCCCCCCCCNC(=O)c2nc(C)c(C)nc2C)cc1OC [10–11]	> 20 µM	> 20 µM	3.23 ± 0.03 µM	> 20 µM	12.9 ± 1.41 µM	>1.55	–	–	–	–	–	–
COc1cc(C=CC(=O)NCCCCCCCCCCNC(=O)c2nc(C)c(C)nc2C)cc(OC)c1OC [10–12]	> 20 µM	> 20 µM	2.86 ± 0.08 µM	> 20 µM	3.41 ± 0.12 µM	>5.87	–	–	–	–	–	–
Cc1nc(C)c(C(=O)NCCCCCCCCCCCCNC(=O)c2cc3ccccc3[nH]2)nc1C [12–4]	> 20 µM	6.62 ± 0.14 µM	3.23 ± 0.18 µM	> 20 µM	3.52 ± 0.12 µM	>5.68	–	–	–	–	–	–
COc1ccc(C=CC(=O)NCCCCCCCCCCCCNC(=O)c2nc(C)c(C)nc2C)cc1OC [12–11]	> 20 µM	2.32 ± 0.14 µM	1.76 ± 0.02 µM	> 20 µM	2.42 ± 0.18 µM	>8.26	–	–	–	–	–	–
N.N.[Cl][Pt][Cl] [DDP, cisplatin, reference compound]	–	–	–	–	–	2.64	–	7.46 ± 0.45 µM	5.71 ± 0.16 µM	6.25 ± 0.34 µM	8.38 ± 0.23 µM	3.18 ± 0.06 µM
Cc1nc(C)c(C)nc1C [TMP, Ligustrazine]	> 20 µM	> 20 µM	> 20 µM	> 20 µM	> 20 µM	–	–	–	–	–	–	–
